Data: ChEMBL document CHEMBL2034827, “Identification of novel antimalarial chemotypes via chemoinformatic compound selection methods for a high-throughput screening program against the novel malarial target, PfNDH2: increasing hit rate via virtual screening methods” (J Med Chem, 2012)

Assays:
Plasmodium falciparum = assay: Antimalarial activity against blood stage form of Plasmodium falciparum 3D7 infected in human erythrocytes after 48 hrs by SYBR Green-based fluorometry; assay type: functional, organism-based; details: 3D7, 48 h
[1] = Inhibition of recombinant Plasmodium falciparum NDH2 expressed in Escherichia coli ANN0222 by spectrophotometry

Row | Structure (SMILES) | IC50 (Plasmodium falciparum) [nM] | IC50 [1] [nM]
1 | O=C(Nc1ccc(F)c(F)c1)C1CCC(Cn2cnc3ccccc3c2=O)CC1 (stereo unspecified) | 2080 | 1360
2 | CC(C)(Cc1cc(=O)c2ccccc2[nH]1)C1CCCCC1 | 3800 | 78
3 | CSc1nc2cc(Oc3ccc(Cl)c4ccccc34)c(Cl)cc2[nH]1 | 2080 | 1040
4 | CCn1cc(C(=O)NCc2ccc(Cl)cc2)c(=O)c2cc(F)c(N3CCN(C(=O)c4ccco4)CC3)cc21 | 5000 | 295
5 | CCCCCCCCCCCCc1cc(=O)c2ccccc2n1O | – | 70
6 | O=C1NC(=O)N(C2CCCCC2)C(=O)/C1=C/c1c(-c2ccccc2)[nH]c2ccccc12 | 5560 | 512
